Assay results published in US10464947B2 (Incyte Corporation, priority 2013, dated 2019).

Test system: KMS.12.BM cells
Assay: KMS.12.BM Cell Viability Assay (Example B1)
Type: cell-based, human
Details: Homo sapiens, 72 h, 3 days, Cell Titer-GLO, read-out: KMS cellular IC50
Procedure, shortened: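 KMS.12.BM human myeloma cells, 5000 cells/well in RPMI with 10% FBS, exposed to a compound concentration range for 3 days. Viable cells measured by ATP-based Cell Titer-GLO luminescence after 10 min at room temperature.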

**Q.** How did the IC50 turn out when `Cc1noc(C)c1-c1ccc2nc(N3CCC(CO)CC3)n3c2c1OC[C@@H]3c1ccccn1` [Example 176, {1-[(4S)-7-(3,5-dimethylisoxazol-4-yl)-4-pyridin-2-yl-4,5-dihydroimidazo[1,5,4-de][1,4]benzoxazin-2-yl]piperidin-4-yl}methanol] was run?
**A.** Its IC50 is under 1000 nM.

**Q.** How did the IC50 turn out when `Cc1noc(C)c1-c1ccc2nc(N3CCOCC3)n3c2c1OCC3c1ccccc1` (centres unmarked) [Example 53, 7-(3,5-Dimethylisoxazol-4-yl)-2-morpholin-4-yl-4-phenyl-4,5-dihydroimidazo[1,5,4-de][1,4]benzoxazine] was run?
**A.** Its IC50 is under 1000 nM.

**Q.** With `Cc1noc(C)c1-c1ccc2nc(N3CCN(CC(N)=O)CC3)n3c2c1OC[C@@H]3c1ccccn1` [Example 191, 2-{4-[(4S)-7-(3,5-dimethylisoxazol-4-yl)-4-pyridin-2-yl-4,5-dihydroimidazo[1,5,4-de][1,4]benzoxazin-2-yl]piperazin-1-yl}acetamide] as the molecule, how does the IC50 read?
**A.** The IC50 was under 1000 nM.

**Q.** For `Cc1noc(C)c1-c1ccc2[nH]c(=O)n3c2c1CCC3c1ccccc1` (centres unmarked) [Example 120, 7-(3,5-Dimethylisoxazol-4-yl)-4-phenyl-5,6-dihydro-4H-imidazo[4,5,1-ij]quinolin-2(1H)-one], which IC50 is on record?
**A.** The IC50 was under 1000 nM.

**Q.** Which IC50 does the source give for `CCOC(=O)C1Oc2c(-c3c(C)noc3C)ccc3[nH]c(=O)n(c23)C1c1ccccc1` (centres unmarked) [Example 23, Ethyl 7-(3,5-dimethylisoxazol-4-yl)-2-oxo-4-phenyl-1,2,4,5-tetrahydroimidazo[1,5,4-de][1,4]benzoxazine-5-carboxylate] here?
**A.** Its IC50 is under 1000 nM.

**Q.** With `Cc1noc(C)c1-c1ccc2nc(N3CC(NS(C)(=O)=O)C3)n3c2c1OC[C@@H]3c1ccccn1` [Example 237, N-{1-[(4S)-7-(3,5-dimethylisoxazol-4-yl)-4-pyridin-2-yl-4,5-dihydroimidazo[1,5,4-de][1,4]benzoxazin-2-yl]azetidin-3-yl}methanesulfonamide] as the molecule, how does the IC50 read?
**A.** The IC50 was under 1000 nM.

**Q.** `Cc1noc(C)c1-c1ccc2nc(N3CC[C@@H](NC(=O)OC(C)(C)C)C3)n3c2c1OC[C@@H]3c1ccccn1` [Example 182A, tert-butyl {(3R)-1-[(4S)-7-(3,5-dimethylisoxazol-4-yl)-4-pyridin-2-yl-4,5-dihydroimidazo[1,5,4-de][1,4]benzoxazin-2-yl]pyrrolidin-3-yl}carbamate] was tested. Which IC50 did it give?
**A.** The IC50 was under 1000 nM.

**Q.** How did the IC50 turn out when `Cc1noc(C)c1-c1ccc2nc(N3CCC(NC(=O)C(F)(F)F)CC3)n3c2c1OC[C@@H]3c1ccccn1` [Example 242, N-{1-[(4S)-7-(3,5-dimethylisoxazol-4-yl)-4-pyridin-2-yl-4,5-dihydroimidazo[1,5,4-de][1,4]benzoxazin-2-yl]piperidin-4-yl}-2,2,2-trifluoroacetamide] was run?
**A.** Its IC50 is under 1000 nM.

**Q.** How did the IC50 turn out when `CCN1CCN(c2nc3ccc(-c4c(C)noc4C)c4c3n2[C@@H](c2ccccn2)CO4)CC1` [Example 192, (4S)-7-(3,5-dimethylisoxazol-4-yl)-2-(4-ethylpiperazin-1-yl)-4-pyridin-2-yl-4,5-dihydroimidazo[1,5,4-de][1,4]benzoxazine] was run?
**A.** Its IC50 is under 1000 nM.

**Q.** For `Cc1noc(C)c1-c1ccc2nc(C3=CCNCC3)n3c2c1OC[C@@H]3c1ccccn1` [Example 104, (4S)-7-(3,5-dimethylisoxazol-4-yl)-4-pyridin-2-yl-2-(1,2,3,6-tetrahydropyridin-4-yl)-4,5-dihydroimidazo[1,5,4-de][1,4]benzoxazine], which IC50 is on record?
**A.** The IC50 was under 1000 nM.

**Q.** For `Cc1noc(C)c1-c1ccc2nc(N3CC(NC(=O)OC(C)(C)C)C3)n3c2c1OC[C@@H]3c1ccccn1` [Example 196, tert-butyl {1-[(4S)-7-(3,5-dimethylisoxazol-4-yl)-4-pyridin-2-yl-4,5-dihydroimidazo[1,5,4-de][1,4]benzoxazin-2-yl]azetidin-3-yl}carbamate], which IC50 is on record?
**A.** The IC50 was under 1000 nM.

**Q.** Which IC50 does the source give for `Cc1noc(C)c1-c1ccc2[nH]c(=O)n3c2c1OCC3c1cccc[n+]1[O-]` (centres unmarked) [Example 16, 7-(3,5-Dimethylisoxazol-4-yl)-4-(1-oxidopyridin-2-yl)-4,5-dihydroimidazo[1,5,4-de][1,4]benzoxazin-2(1H)-one] here?
**A.** The IC50 was under 1000 nM.

**Q.** With `CC(=O)N1CCN(c2nc3ccc(-c4c(C)noc4C)c4c3n2[C@@H](c2ccccn2)CO4)CC1` [Example 224, (4S)-2-(4-acetylpiperazin-1-yl)-7-(3,5-dimethylisoxazol-4-yl)-4-pyridin-2-yl-4,5-dihydroimidazo[1,5,4-de][1,4]benzoxazine] as the molecule, how does the IC50 read?
**A.** Its IC50 is under 1000 nM.

**Q.** Which IC50 does the source give for `CCS(=O)(=O)N1CCN(c2nc3ccc(-c4c(C)noc4C)c4c3n2[C@@H](c2ccccn2)CO4)CC1` [Example 226, (4S)-7-(3,5-dimethylisoxazol-4-yl)-2-[4-(ethylsulfonyl)piperazin-1-yl]-4-pyridin-2-yl-4,5-dihydroimidazo[1,5,4-de][1,4]benzoxazine] here?
**A.** Its IC50 is under 1000 nM.

**Q.** With `Cc1noc(C)c1-c1ccc2nc(N3CC(NC(=O)C4CCC4)C3)n3c2c1OC[C@@H]3c1ccccn1` [Example 236, N-{1-[(4S)-7-(3,5-dimethylisoxazol-4-yl)-4-pyridin-2-yl-4,5-dihydroimidazo[1,5,4-de][1,4]benzoxazin-2-yl]azetidin-3-yl}cyclobutanecarboxamide] as the molecule, how does the IC50 read?
**A.** Its IC50 is under 1000 nM.

**Q.** Which IC50 does the source give for `CCC(=O)N1CCN(c2nc3ccc(-c4c(C)noc4C)c4c3n2[C@@H](c2ccccn2)CO4)CC1` [Example 225, (4S)-7-(3,5-dimethylisoxazol-4-yl)-2-(4-propionylpiperazin-1-yl)-4-pyridin-2-yl-4,5-dihydroimidazo[1,5,4-de][1,4]benzoxazine] here?
**A.** Its IC50 is under 1000 nM.

**Q.** Which IC50 does the source give for `COCCN1CCN(c2nc3ccc(-c4c(C)noc4C)c4c3n2[C@@H](c2ccccn2)CO4)CC1` [Example 184, (4S)-7-(3,5-dimethylisoxazol-4-yl)-2-[4-(2-methoxyethyl)piperazin-1-yl]-4-pyridin-2-yl-4,5-dihydroimidazo[1,5,4-de][1,4]benzoxazine] here?
**A.** The IC50 was under 1000 nM.

**Q.** Which IC50 does the source give for `Cc1noc(C)c1-c1ccc2nc(N3CCN(C(=O)OC(C)(C)C)CC3)n3c2c1OCC3c1ccccc1` (centres unmarked) [Example 60] here?
**A.** The IC50 was under 1000 nM.

**Q.** For `CC(=O)N[C@H]1CCN(c2nc3ccc(-c4c(C)noc4C)c4c3n2[C@@H](c2ccccn2)CO4)C1` [Example 201B, N-{(3S)-1-[(4S)-7-(3,5-dimethylisoxazol-4-yl)-4-pyridin-2-yl-4,5-dihydroimidazo[1,5,4-de][1,4]benzoxazin-2-yl]pyrrolidin-3-yl}acetamide], which IC50 is on record?
**A.** Its IC50 is under 1000 nM.

**Q.** Which IC50 does the source give for `Cc1noc(C)c1-c1ccc2[nH]c(=O)n3c2c1OCC3c1ccccc1` (centres unmarked) [Example 1, 7-(3,5-Dimethylisoxazol-4-yl)-4-phenyl-4,5-dihydroimidazo[1,5,4-de][1,4]benzoxazin-2(1H)-one] here?
**A.** The IC50 was under 1000 nM.

Same assay, conditions: Homo sapiens, KMS-12-BM, 72 h, 3 days, Cell Titer-GLO, read-out: KMS cellular IC50

**Q.** `Cc1noc(C)c1-c1cc(-c2ccc(O)nc2)c2[nH]c(=O)n3c2c1OC[C@@H]3c1ccccn1` [Example 259, (4S)-7-(3,5-dimethylisoxazol-4-yl)-9-(6-hydroxypyridin-3-yl)-4-pyridin-2-yl-4,5-dihydroimidazo[1,5,4-de][1,4]benzoxazin-2(1H)-one] was tested. Which IC50 did it give?
**A.** Its IC50 is 1000 to 10000 nM.

**Q.** How did the IC50 turn out when `Cc1noc(C)c1-c1ccc2nc(N3CCC(C)(O)C3)n3c2c1OC[C@@H]3c1ccccn1` (single isomer, unassigned) [Example 146A] was run?
**A.** Its IC50 is under 1000 nM.

**Q.** With `Cc1noc(C)c1-c1cc(F)c2[nH]c(=O)n3c2c1OCC3c1ccccn1` (centres unmarked) [Example 265B, 7-(3,5-dimethylisoxazol-4-yl)-9-fluoro-4-pyridin-2-yl-4,5-dihydroimidazo[1,5,4-de][1,4]benzoxazin-2(1H)-one] as the molecule, how does the IC50 read?
**A.** Its IC50 is under 1000 nM.
